Reference: patent US8247211B2, “Glycopeptide antibiotics” (American Cyanamid Company, priority 2001, dated 2012)
Converted amounts (≈) assume the structure as drawn. Numbered stars: 1 amine (or outer) side, 2 acyl side, 3 side chain; on linkers, the order of the positions; unused ones are H or OH. Square brackets hold non-standard residues; d marks the D form. Peptide text beside a SMILES is read from it. ξ: configuration not given here. X1 = N=C1NCC(C(O)C(N[*:1])C(=O)[*:2])N1C1OC(CO)C(O)C(O)C1O; X6 = N=C1NCC(CC(N[*:1])C(=O)[*:2])N1C1OC(CO)C(O)C(O)C1O; ξEnduracididine(βξ-OH,4'ξ) = N=C1NCC(C(O)C(N)C(=O)O)N1; Tyr(3-NO2) = N[CH](Cc1ccc(O)c([N+](=O)[O-])c1)C(=O)O; Tyr(3,5-Br2) = N[CH](Cc1cc(Br)c(O)c(Br)c1)C(=O)O; X7 = N=C1NCC(CC(N[*:1])C(=O)[*:2])N1; ξPhe(βξ-Me) = CC(c1ccccc1)C(N)C(=O)O

Key:
Assay in all cases: In vitro antibacterial evaluation: minimum inhibitory concentration (MIC), broth dilution method
Type in all cases: cell-based
Enterococcus sp. = conditions: 18 hours at 35° C.
In short: (§1)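 MIC read as lowest drug level preventing visible growth. Organisms at 5×10^5 CFU/mL were exposed to a 64-0.06 μg/mL dilution series in Muller-Hinton II […] following NCCLS broth dilution standard M7-A2.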

Streptococcus sp. = conditions: 18 hours at 35° C.
In short: as §1

Escherichia coli [1] = conditions: broth dilution, 18 hours at 35° C.
Staphylococcus sp. = conditions: 18 hours at 35° C.
In short: as §1

Escherichia coli [2] = conditions: 18 hours at 35° C.
In short: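 Values are minimum inhibitory concentrations, meaning the smallest antibiotic concentration that stops growth of the organism. They come from broth dilution in Muller-Hinton II […] per NCCLS guidance (M7-A2), using 5×10^5 CFU/mL and concentrations from 64 to 0.06 μg/mL.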

[3] = broth dilution, inoculum 5×10^5 CFU/mL

CC(c1ccccc1)C1NC(=O)CNC(=O)C(CO)NC(=O)C(CC2CNC(=N)N2C2OC(CO)C(O)C(O)C2O)NC(=O)C(CC2CNC(=N)N2)NC(=O)C(Cc2ccc(O)c([N+](=O)[O-])c2)NC1=O (stereo not drawn) [Example 10, Cyclo[3-(2-iminoimidazolidin-4-yl)alanyl-3-(3-hexopyranosyl-2-iminoimidazolidin-4-yl)-alanylserylglycyl-β-methylphenylalanyl-3-nitrotyrosyl]] (cyclo(G[ξPhe(βξ-Me)][Tyr(3-NO2)][X7][X6]S); configuration not given here)
MIC Enterococcus avium (GC 4558) (Enterococcus sp.; broth dilution): >64 µg/mL | MIC Enterococcus faecalis (ATCC 29212) (Enterococcus sp.; broth dilution): >64 µg/mL | MIC Enterococcus faecalis (GC 2242) (Enterococcus sp.; broth dilution): >64 µg/mL | MIC Enterococcus faecalis (GC 2691) (Enterococcus sp.; broth dilution): >64 µg/mL | MIC Enterococcus faecalis (GC 3059) (Enterococcus sp.; broth dilution): >64 µg/mL | MIC Enterococcus faecalis (GC 4552) (Enterococcus sp.; broth dilution): >64 µg/mL | MIC Enterococcus faecalis (GC 4553) (Enterococcus sp.; broth dilution): >64 µg/mL | MIC Enterococcus faecalis (GC 4554) (Enterococcus sp.; broth dilution): >64 µg/mL | MIC Enterococcus faecalis (GC 6189) (Enterococcus sp.; broth dilution): >64 µg/mL | MIC Enterococcus faecium (GC 2243) (Enterococcus sp.; broth dilution): >64 µg/mL | MIC Enterococcus faecium (GC 4556) (Enterococcus sp.; broth dilution): >64 µg/mL | MIC Enterococcus faecium (GC 4557) (Enterococcus sp.; broth dilution): >64 µg/mL | MIC Streptococcus agalactiae (GC 4564) (Streptococcus sp.; broth dilution): >64 µg/mL | MIC Streptococcus pneumoniae (ATCC 6301) (Streptococcus sp.; broth dilution): >64 µg/mL | MIC Streptococcus pneumoniae (GC 1894) (Streptococcus sp.; broth dilution): >64 µg/mL | MIC Streptococcus pneumoniae (GC 4565) (Streptococcus sp.; broth dilution): >64 µg/mL | MIC Streptococcus pyogenes (GC 4563) (Streptococcus sp.; broth dilution): >64 µg/mL | MIC Escherichia coli (ATCC 25922) (Escherichia coli [1]): >64 µg/mL | MIC Escherichia coli (GC 4559) (Escherichia coli [1]): >64 µg/mL | MIC Escherichia coli (GC 4560) (Escherichia coli [1]): >64 µg/mL

CC(c1ccccc1)C1NC(=O)CNC(=O)C(CO)NC(=O)C(C(O)C2CNC(=N)N2C2OC(CO)C(O)C(O)C2O)NC(=O)C(C(O)C2CNC(=N)N2)NC(=O)C(Cc2cc(Br)c(O)c(Br)c2)NC1=O (stereo not drawn) [Example 3, Cyclo[glycyl-β-methylphenylalanyl-3,5-dibromotyrosyl-3-(2-iminoimidazolidin-4-yl)seryl-3-(3-hexopyranosyl-2-iminoimidazolidin-4-yl)serylseryl]] (cyclo(G[ξPhe(βξ-Me)][Tyr(3,5-Br2)][ξEnduracididine(βξ-OH,4'ξ)][X1]S); configuration not given here)
MIC Escherichia coli (GC 4560) (Escherichia coli [1]): 64 µg/mL (≈ 56.7 µM)

CC(c1ccccc1)C1NC(=O)CNC(=O)C(CO)NC(=O)C(C(O)C2CNC(=N)N2C2OC(CO)C(O)C(O)C2O)NC(=O)C(C(O)C2CNC(=N)N2)NC(=O)C(Cc2ccc3oc(-c4ccccc4OC4OC(CO)C(O)C(O)C4O)nc3c2)NC1=O (stereo not shown) [Example 36]
MIC Coagulase Negative Staphylococcus (GC 4547) (Staphylococcus sp.; broth dilution): 64 µg/mL (≈ 51.2 µM) | MIC Coagulase Negative Staphylococcus (GC 4549) (Staphylococcus sp.; broth dilution): 64 µg/mL (≈ 51.2 µM) | MIC Coagulase Negative Staphylococcus (GC 6257) (Staphylococcus sp.; broth dilution): 64 µg/mL (≈ 51.2 µM) | MIC Staphylococcus haemolyticus (GC 4546) (Staphylococcus sp.; broth dilution): 64 µg/mL (≈ 51.2 µM) | MIC Escherichia coli (GC 4560) (Escherichia coli [1]): 64 µg/mL (≈ 51.2 µM)

CC(c1ccccc1)C1NC(=O)CNC(=O)C(CO)NC(=O)C(C(O)C2CNC(=N)N2C2OC(CO)C(O)C(O)C2O)NC(=O)C(C(O)C2CNC(=N)N2)NC(=O)C(Cc2ccc(O)c(NC=O)c2)NC1=O (stereo not drawn) [Example 18, Cyclo[glycyl-β-methylphenylalanyl-3-formamidotyrosyl-3-(2-iminoimidazolidin-4-yl)seryl-3-(3-hexopyranosyl-2-iminoimidazolidin-4-yl)serylseryl]]
MIC Enterococcus faecium (GC 4557) (Enterococcus sp.; Enterococcus faecium (GC 4557), broth dilution): 64 µg/mL (≈ 63.1 µM) | MIC Enterococcus faecium (GC 4557) (Enterococcus sp.; broth dilution): 64 µg/mL (≈ 63.1 µM) | MIC Streptococcus pneumoniae (GC 1894) (Streptococcus sp.; Streptococcus pneumoniae (GC 1894), broth dilution): 64 µg/mL (≈ 63.1 µM) | MIC Streptococcus pneumoniae (GC 1894) (Streptococcus sp.; broth dilution): 64 µg/mL (≈ 63.1 µM) | MIC Escherichia coli (ATCC 25922) (Escherichia coli [1]): 64 µg/mL (≈ 63.1 µM) | MIC Escherichia coli (GC 4559) (Escherichia coli [1]): 32 µg/mL (≈ 31.6 µM) | MIC Escherichia coli (GC 4560) (Escherichia coli [1]): 16 µg/mL (≈ 15.8 µM)

CC(c1ccccc1)C1NC(=O)CNC(=O)C(CO)NC(=O)C(C(O)C2CNC(=N)N2C2OC(CO)C(O)C(O)C2O)NC(=O)C(C(O)C2CNC(=N)N2)NC(=O)C(Cc2ccc(OC3OC(CO)C(OC4OC(COCC=Cc5ccccc5)C(O)C(O)C4O)C(O)C3O)cc2)NC1=O (stereo not drawn) [Example 242, Cyclo[glycyl-β-methylphenylalanyl-O-[4-O-[6-O-(3-phenylprop-2-en-1-yl)hexopyranosyl]-hexopyranosyl]tyrosyl-3-(2-iminoimidazolidin-4-yl)seryl-3-(3-hexopyranosyl-2-iminoimidazolidin-4-yl)serylseryl]]
MIC Enterococcus avium (GC 4558) (Enterococcus sp.; Enterococcus avium (GC 4558)): 16 µg/mL (≈ 11.3 µM) | MIC Enterococcus faecalis (ATCC 29212) (Enterococcus sp.; Enterococcus faecalis (ATCC 29212)): 16 µg/mL (≈ 11.3 µM) | MIC Enterococcus faecalis (GC 2242) (Enterococcus sp.; Enterococcus faecalis (GC 2242)): 16 µg/mL (≈ 11.3 µM) | MIC Enterococcus faecalis (GC 2691) (Enterococcus sp.; Enterococcus faecalis (GC 2691)): 16 µg/mL (≈ 11.3 µM) | MIC Enterococcus faecalis (GC 3059) (Enterococcus sp.; Enterococcus faecalis (GC 3059)): 16 µg/mL (≈ 11.3 µM) | MIC Enterococcus faecalis (GC 4552) (Enterococcus sp.; Enterococcus faecalis (GC 4552)): 16 µg/mL (≈ 11.3 µM) | MIC Enterococcus faecalis (GC 4553) (Enterococcus sp.; Enterococcus faecalis (GC 4553)): 16 µg/mL (≈ 11.3 µM) | MIC Enterococcus faecalis (GC 4554) (Enterococcus sp.; Enterococcus faecalis (GC 4554)): 16 µg/mL (≈ 11.3 µM) | MIC Enterococcus faecalis (GC 6189) (Enterococcus sp.; Enterococcus faecalis (GC 6189)): 16 µg/mL (≈ 11.3 µM) | MIC Enterococcus faecium (GC 2243) (Enterococcus sp.; Enterococcus faecium (GC 2243)): 16 µg/mL (≈ 11.3 µM) | MIC Enterococcus faecium (GC 4556) (Enterococcus sp.; Enterococcus faecium (GC 4556)): 16 µg/mL (≈ 11.3 µM) | MIC Enterococcus faecium (GC 4557) (Enterococcus sp.; Enterococcus faecium (GC 4557)): 8 µg/mL (≈ 5.67 µM) | MIC Enterococcus faecalis (GC 2242) (Enterococcus sp.; [3]): 16 µg/mL (≈ 11.3 µM) | MIC Enterococcus faecalis (GC 2691) (Enterococcus sp.; [3]): 16 µg/mL (≈ 11.3 µM) | MIC Enterococcus faecalis (GC 3059) (Enterococcus sp.; [3]): 16 µg/mL (≈ 11.3 µM) | MIC Escherichia coli (ATCC 25922) (Escherichia coli [2]; Escherichia coli (ATCC 25922)): >64 µg/mL | MIC Escherichia coli (GC 4559) (Escherichia coli [2]; Escherichia coli (GC 4559)): >64 µg/mL | MIC Escherichia coli (GC 4560) (Escherichia coli [2]; Escherichia coli (GC 4560)): 2 µg/mL (≈ 1.42 µM) | MIC Coagulase Negative Staphylococcus (GC 4547) (Staphylococcus sp.; Coagulase Negative Staphylococcus (GC 4547)): 8 µg/mL (≈ 5.67 µM) | MIC Coagulase Negative Staphylococcus (GC 4548) (Staphylococcus sp.; Coagulase Negative Staphylococcus (GC 4548)): 4 µg/mL (≈ 2.83 µM) | MIC Coagulase Negative Staphylococcus (GC 4549) (Staphylococcus sp.; Coagulase Negative Staphylococcus (GC 4549)): 4 µg/mL (≈ 2.83 µM) | MIC Coagulase Negative Staphylococcus (GC 4551) (Staphylococcus sp.; Coagulase Negative Staphylococcus (GC 4551)): 16 µg/mL (≈ 11.3 µM) | MIC Coagulase Negative Staphylococcus (GC 6257) (Staphylococcus sp.; Coagulase Negative Staphylococcus (GC 6257)): 2 µg/mL (≈ 1.42 µM) | MIC Staphylococcus aureus (ATCC 29213) (Staphylococcus sp.; Staphylococcus aureus (ATCC 29213)): 8 µg/mL (≈ 5.67 µM) | MIC Staphylococcus aureus (GC 1131) (Staphylococcus sp.; Staphylococcus aureus (GC 1131)): 8 µg/mL (≈ 5.67 µM) | MIC Staphylococcus aureus (GC 3051) (Staphylococcus sp.; Staphylococcus aureus (GC 3051)): 8 µg/mL (≈ 5.67 µM) | MIC Staphylococcus aureus (GC 3053) (Staphylococcus sp.; Staphylococcus aureus (GC 3053)): 8 µg/mL (≈ 5.67 µM) | MIC Staphylococcus aureus (GC 4541) (Staphylococcus sp.; Staphylococcus aureus (GC 4541)): 4 µg/mL (≈ 2.83 µM) | MIC Staphylococcus aureus (GC 4542) (Staphylococcus sp.; Staphylococcus aureus (GC 4542)): 4 µg/mL (≈ 2.83 µM) | MIC Staphylococcus aureus (GC 4544) (Staphylococcus sp.; Staphylococcus aureus (GC 4544)): 8 µg/mL (≈ 5.67 µM) | MIC Staphylococcus aureus (GC 4545) (Staphylococcus sp.; Staphylococcus aureus (GC 4545)): 4 µg/mL (≈ 2.83 µM) | MIC Staphylococcus aureus-SMITH (GC 4543) (Staphylococcus sp.; Staphylococcus aureus-SMITH (GC 4543)): 8 µg/mL (≈ 5.67 µM) | MIC Staphylococcus haemolyticus (GC 4546) (Staphylococcus sp.; Staphylococcus haemolyticus (GC 4546)): 4 µg/mL (≈ 2.83 µM) | MIC Streptococcus agalactiae (GC 4564) (Streptococcus sp.; Streptococcus agalactiae (GC 4564)): 2 µg/mL (≈ 1.42 µM) | MIC Streptococcus pneumoniae (ATCC 6301) (Streptococcus sp.; Streptococcus pneumoniae (ATCC 6301)): 1 µg/mL (≈ 0.708 µM) | MIC Streptococcus pneumoniae (GC 1894) (Streptococcus sp.; Streptococcus pneumoniae (GC 1894)): 0.5 µg/mL (≈ 0.354 µM) | MIC Streptococcus pneumoniae (GC 4565) (Streptococcus sp.; Streptococcus pneumoniae (GC 4565)): 0.5 µg/mL (≈ 0.354 µM) | MIC Streptococcus pyogenes (GC 4563) (Streptococcus sp.; Streptococcus pyogenes (GC 4563)): 2 µg/mL (≈ 1.42 µM) | MIC Streptococcus agalactiae (GC 4564) (Streptococcus sp.; [3]): 2 µg/mL (≈ 1.42 µM) | MIC Streptococcus pneumoniae (ATCC 6301) (Streptococcus sp.; [3]): 1 µg/mL (≈ 0.708 µM) | MIC Streptococcus pneumoniae (GC 1894) (Streptococcus sp.; [3]): 0.5 µg/mL (≈ 0.354 µM) | MIC Streptococcus pneumoniae (GC 4565) (Streptococcus sp.; [3]): 0.5 µg/mL (≈ 0.354 µM) | MIC Streptococcus pyogenes (GC 4563) (Streptococcus sp.; [3]): 2 µg/mL (≈ 1.42 µM)
